Tests used:
human ATR kinase = human ATR kinase (Homo sapiens (Human), UniProt Q13535); assay: In vitro evaluation of inhibitory activity on human ATR kinase (HTRF, ATR/ATRIP(h), GST-cMyc-p53 substrate); format: biochemical; conditions: 50 nM GST-cMyc-p53, 30 min room temperature
Method: IC50 values were determined to evaluate the inhibitory activity of the tested compounds on human ATR kinase.
ATR/ATRIP(h) was incubated in assay buffer containing 50 nM GST-cMyc-p53 and Mg/ATP (according to concentration required). The reaction was initiated by adding Mg/ATP mixture. After incubating for 30 min at room temperature, a stop solution containing EDTA to was added to terminate the reaction. Finally, detecting buffer containing d^2-labeled anti-GST monoclonal antibody and europium-labeled anti-phospho Ser15 antibody against phosphorylated p^53 were added. Then the plate was read in time-resolved fluorescence mode and homogeneous time resolution was performed.
The fluorescence (HTRF) signal was determined according to the formula HTRF=10000×(Em665 nm/Em620 nm).
IC50 data was analyzed using XLFit version 5.3 (ID Business Solutions). Non-linear regression analysis was used to fit the sigmoidal dose response (variable slope) curve.

[1] = test system: human colorectal cancer LoVo cell subcutaneous xenograft; assay: In vivo efficacy in colorectal cancer LoVo CDX model; design: species or system mouse; conditions: 25 mg/kg orally twice a day, day 17 of administration, vs vehicle control group
Text: LoVo is a colorectal adenocarcinoma tumor cell line with MRE11A mutation (MRE11A is a key component of DNA double-strand break repairing ATM signaling pathway), which is sensitive to ATR inhibitor. In this experiment, the colorectal cancer LoVo CDX model was used to verify the inhibitory effect of ATR inhibitor as monotherapy on tumors with defect in ATM signaling pathway.
Human colorectal cancer LoVo cells (ECACC, CatLog: 87060101), in vitro monolayer culture, culture conditions: Ham's F-12 medium with 10% fetal bovine serum, 100 U/mL penicillin, 100 μg/mL streptomycin and 2 mM glutamine, 37° C., 5% CO2 culture. General passage with trypsin-EDTA digestion was performed twice a week. When the cell saturation was 80%-90%, the cells were collected, counted, and inoculated. 0.1 mL (10×10^6) of LoVo cells were subcutaneously inoculated into the right back of each nude mouse. When the mean tumor volume reached 173 mm^3, grouping and administration were initiated.
25.51 mg of WX15 was weighed and dissolved in 0.500 mL of DMSO, which were added with 2.000 mL of propylene glycol and 2.500 mL of deionized water, vortexed for homogeneous mixing, adjusted to PH=6.0, to obtain a clear solution. The preparing processes of Compound WX42, Compound WX45, Compound WX46 were referred to Compound WX15.
Dosage: All test compounds were administered orally at 25 mg/kg twice a day, with an interval of 8 h in a day.
A vernier caliper was used to measure the tumor diameter twice a week. The formula for calculating the tumor volume: V=0.5a×b^2, a and b represent the long and short diameters of the tumor, respectively. Antitumor efficacy of the compound was evaluated by TGI (%) or relative tumor proliferation rate T/C (%). Relative tumor proliferation rate T/C (%)=TRTV/CRTV×100% (TRTV: mean RTV value of treatment group; CRTV: mean RTV value of negative control group). The relative tumor volume (relative tumor volume, RTV) was calculated based on the tumor measurement results and the calculation formula was RTV=Vt/V0, where V0 is the tumor volume measured at grouping administration (i.e. D0), Vt is the tumor volume at a measurement, and data on the same day was used for TRTV and CRTV.
TGI (%) reflects the tumor growth inhibition rate. TGI (%)=[1−(mean tumor volume at the end of administration in a treatment group−mean tumor volume at the beginning of administration in this treatment group)/(mean tumor volume at the end of treatment in the solvent control group−mean tumor volume at the beginning of treatment in the solvent control group)]×100%.

tumor cell line LoVo = assay: In vitro cell viability test (CellTiter-Glo), LoVo cell proliferation inhibition; format: cell-based; conditions: Homo sapiens
Method: In this experiment, inhibitory effect of the compounds on cell proliferation was investigated by testing influence on cell viability in vitro in tumor cell line LoVo.
CellTiter-Glo Luminescence Cell Viability Test
The following protocols were performed according to instruction of PromegaCellTiter-Glo Luminescence cell viability test Kit (Promega-G7573). • (1) Thawing CellTiter-Glo buffer and allowing it to acclimate to room temperature. • (2) Allowing CellTiter-Glo substrate to acclimate to room temperature. • (3) Adding CellTiter-Glo buffer to a bottle of CellTiter-Glo substrate to dissolve the substrate to prepare CellTiter-Glo working solution. • (4) Vortexing slowly to full dissolution. • (5) Removing the cell culture plate and balancing it to room temperature for 30 min. • (6) Adding 50 μL (equivalent to half volume of cell culture medium in each well) of CellTiter-Glo working solution to each well, wrapping the cell plate with aluminum foil to protect from light. • (7) Shaking the culture plate on an orbital shaker for 2 min to induce cell lysis. • (8) Placing the culture plate at room temperature for 10 min to stabilize the luminescence signal. • (9) Detecting the luminescence signal on SpectraMax i3× of Molecular Devices plate reader. Data Analysis
The following formula was used to calculate the inhibition rate of the test compound (Inhibition rate, IR): IR(%)=(1−(RLU Compound−RLU Blank control)/(RLU Vehicle control−RLU Blank control))*100%.
The inhibition rates of different concentrations of compounds were calculated in Excel, and GraphPad Prism software was used to make the inhibition curve and calculate relevant parameters, including the minimum inhibition rate, the maximum inhibition rate and IC50.

[2] = Pharmacokinetic properties in vivo in female Balb/c Nude mice; design: species or system mouse; conditions: for AUC(0-t) / clearance / half-life / C0 / Vd / Cmax: mouse, plasma; for C0: drug concentration at 0 min; for Vd: read-out: Vdss; for F: oral bioavailability, 10 mg/kg oral vs 1 mg/kg IV
Method: Experimental method: The purpose of this study was to determine the pharmacokinetic parameters of the compounds and calculate the oral bioavailability in female Balb/c Nude mice.
The project involved 6 female Balb/c Nude mice. 3 mice were administered intravenously at a dose of 1 mg/kg, and plasma samples were collected at 0 h (before administration) and 0.0833, 0.25, 0.5, 1, 2, 4, 6, 8 and 24 h after administration, other 3 mice were given by oral gavage at a dose of 10 mg/kg or 25 mg/kg, and plasma samples were collected at 0 h (before dosing) and 0.5, 1, 2, 3, 4, 6, 8, 24 h after administration. Then LC/MS/MS analysis was performed for the collected samples and data was collected. The collected analysis data was calculated for relevant pharmacokinetic parameters with Phoenix WinNonlin 6.2.1 software.

Sequence of human ATR kinase (Q13535 whole entry): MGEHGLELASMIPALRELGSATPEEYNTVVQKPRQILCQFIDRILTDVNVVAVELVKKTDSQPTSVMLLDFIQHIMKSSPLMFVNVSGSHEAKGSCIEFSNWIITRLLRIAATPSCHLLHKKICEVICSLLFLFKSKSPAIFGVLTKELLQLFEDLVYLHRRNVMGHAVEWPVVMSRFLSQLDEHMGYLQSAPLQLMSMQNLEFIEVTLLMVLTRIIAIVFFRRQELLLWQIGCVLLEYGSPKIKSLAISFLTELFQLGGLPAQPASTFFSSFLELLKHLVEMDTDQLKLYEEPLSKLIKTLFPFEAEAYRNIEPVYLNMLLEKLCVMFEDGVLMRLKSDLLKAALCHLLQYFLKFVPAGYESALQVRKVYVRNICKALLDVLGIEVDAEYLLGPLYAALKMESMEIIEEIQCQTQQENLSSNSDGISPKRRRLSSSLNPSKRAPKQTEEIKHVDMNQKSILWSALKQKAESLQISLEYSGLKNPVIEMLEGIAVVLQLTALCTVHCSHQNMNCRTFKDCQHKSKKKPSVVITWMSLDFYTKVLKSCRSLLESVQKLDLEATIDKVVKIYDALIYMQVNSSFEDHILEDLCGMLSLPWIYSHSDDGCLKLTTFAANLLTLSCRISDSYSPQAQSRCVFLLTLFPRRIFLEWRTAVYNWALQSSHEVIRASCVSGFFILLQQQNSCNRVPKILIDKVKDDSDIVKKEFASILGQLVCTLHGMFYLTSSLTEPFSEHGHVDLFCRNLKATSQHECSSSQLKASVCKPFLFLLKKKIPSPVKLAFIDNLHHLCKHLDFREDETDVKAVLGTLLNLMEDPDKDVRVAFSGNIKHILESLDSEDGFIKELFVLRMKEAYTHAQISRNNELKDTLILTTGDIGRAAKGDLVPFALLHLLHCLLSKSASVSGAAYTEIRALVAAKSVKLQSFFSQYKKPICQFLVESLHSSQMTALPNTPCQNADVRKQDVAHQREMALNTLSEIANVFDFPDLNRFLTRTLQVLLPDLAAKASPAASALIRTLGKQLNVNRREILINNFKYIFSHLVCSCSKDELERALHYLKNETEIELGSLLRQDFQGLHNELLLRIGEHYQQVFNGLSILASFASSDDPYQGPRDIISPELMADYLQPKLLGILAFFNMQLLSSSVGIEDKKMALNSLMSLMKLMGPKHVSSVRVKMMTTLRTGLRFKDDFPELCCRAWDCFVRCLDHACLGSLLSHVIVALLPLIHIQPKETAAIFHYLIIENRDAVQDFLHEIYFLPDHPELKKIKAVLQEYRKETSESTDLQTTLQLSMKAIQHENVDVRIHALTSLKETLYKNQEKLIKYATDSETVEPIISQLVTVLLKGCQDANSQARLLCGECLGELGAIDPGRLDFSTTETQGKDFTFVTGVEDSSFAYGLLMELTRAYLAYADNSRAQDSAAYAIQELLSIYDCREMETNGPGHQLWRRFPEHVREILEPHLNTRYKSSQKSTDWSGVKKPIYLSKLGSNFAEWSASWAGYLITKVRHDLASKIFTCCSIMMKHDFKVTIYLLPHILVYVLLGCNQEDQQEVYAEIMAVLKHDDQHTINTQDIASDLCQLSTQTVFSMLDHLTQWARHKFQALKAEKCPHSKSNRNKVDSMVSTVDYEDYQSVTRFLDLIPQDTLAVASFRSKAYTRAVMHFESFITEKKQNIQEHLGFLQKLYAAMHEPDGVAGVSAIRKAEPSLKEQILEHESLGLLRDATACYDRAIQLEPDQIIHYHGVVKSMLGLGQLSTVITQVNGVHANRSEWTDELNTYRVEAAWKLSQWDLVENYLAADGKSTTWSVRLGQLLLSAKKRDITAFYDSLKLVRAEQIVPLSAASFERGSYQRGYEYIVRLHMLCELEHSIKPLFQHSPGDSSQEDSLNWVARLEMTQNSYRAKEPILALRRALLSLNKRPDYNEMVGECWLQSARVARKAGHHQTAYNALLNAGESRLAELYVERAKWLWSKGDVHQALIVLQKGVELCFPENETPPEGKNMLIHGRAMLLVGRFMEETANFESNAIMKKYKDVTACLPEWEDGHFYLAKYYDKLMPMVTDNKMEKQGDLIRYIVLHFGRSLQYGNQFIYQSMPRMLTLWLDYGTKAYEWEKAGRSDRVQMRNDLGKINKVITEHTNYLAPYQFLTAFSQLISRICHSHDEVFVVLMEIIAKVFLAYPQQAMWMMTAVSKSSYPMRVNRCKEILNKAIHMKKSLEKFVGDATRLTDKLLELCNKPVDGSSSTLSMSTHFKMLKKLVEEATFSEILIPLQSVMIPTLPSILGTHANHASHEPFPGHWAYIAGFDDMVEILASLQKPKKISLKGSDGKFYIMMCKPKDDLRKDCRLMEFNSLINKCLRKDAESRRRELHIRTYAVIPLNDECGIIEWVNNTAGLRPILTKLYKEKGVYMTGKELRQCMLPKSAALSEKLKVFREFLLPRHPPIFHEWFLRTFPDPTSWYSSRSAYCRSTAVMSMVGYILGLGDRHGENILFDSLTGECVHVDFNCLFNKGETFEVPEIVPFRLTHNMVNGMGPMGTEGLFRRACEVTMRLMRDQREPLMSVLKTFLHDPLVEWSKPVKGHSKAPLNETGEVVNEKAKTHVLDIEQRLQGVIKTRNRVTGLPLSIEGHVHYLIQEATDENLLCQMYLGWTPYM
Sequence of human ATR kinase (Q8WXE1 whole entry partner): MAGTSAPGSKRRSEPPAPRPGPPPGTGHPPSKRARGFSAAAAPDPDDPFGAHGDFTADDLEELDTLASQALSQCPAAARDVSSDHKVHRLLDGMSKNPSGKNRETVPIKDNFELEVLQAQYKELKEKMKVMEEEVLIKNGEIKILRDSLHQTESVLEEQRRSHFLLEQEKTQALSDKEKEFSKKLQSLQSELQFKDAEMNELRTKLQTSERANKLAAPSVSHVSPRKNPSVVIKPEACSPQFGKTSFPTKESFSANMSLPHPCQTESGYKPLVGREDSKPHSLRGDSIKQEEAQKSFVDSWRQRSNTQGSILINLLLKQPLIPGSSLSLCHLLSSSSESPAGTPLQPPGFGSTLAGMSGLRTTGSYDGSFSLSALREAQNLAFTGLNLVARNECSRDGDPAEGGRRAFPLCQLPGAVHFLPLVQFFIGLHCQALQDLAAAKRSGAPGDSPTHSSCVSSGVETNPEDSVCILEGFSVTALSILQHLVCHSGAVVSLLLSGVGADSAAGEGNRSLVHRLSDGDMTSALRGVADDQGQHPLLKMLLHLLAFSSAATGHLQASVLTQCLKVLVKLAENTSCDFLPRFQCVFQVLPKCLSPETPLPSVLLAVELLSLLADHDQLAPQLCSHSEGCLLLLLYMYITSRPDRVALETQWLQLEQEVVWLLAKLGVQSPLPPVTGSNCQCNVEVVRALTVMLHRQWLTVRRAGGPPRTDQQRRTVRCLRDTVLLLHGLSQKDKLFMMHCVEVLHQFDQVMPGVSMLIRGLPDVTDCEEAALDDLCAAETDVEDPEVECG

Compound	IC50 (human ATR kinase)	T/C (relative tumor proliferation rate) [1]	TGI (tumor growth inhibition rate) [1]	IC50 (tumor cell line LoVo)	AUC(0-t) ([2]; 1 mg/kg IV)	clearance ([2]; 1 mg/kg IV)	half-life ([2]; 1 mg/kg IV)	C0 ([2]; 1 mg/kg IV)	Vd ([2]; 1 mg/kg IV)	AUC(0-t) ([2]; 10 mg/kg oral gavage)	Cmax ([2]; 10 mg/kg oral gavage)	half-life ([2]; 10 mg/kg oral gavage)	F [2]	AUC(0-t) ([2]; 25 mg/kg oral gavage)	Cmax ([2]; 25 mg/kg oral gavage)	half-life ([2]; 25 mg/kg oral gavage)
C[C@@H]1COCCN1c1cc(-c2ccnn2C)nc(-c2ccnc3[nH]ccc23)n1 [WX15]	159 nM	46.7%	66.8%	410 nM	0.905 µM·h	47 mL/min/kg	0.78 h	1.96 µM	2.21 L/kg	8.75 µM·h	4.56 µM	1.23 h	96.0%			
Cc1cnn(C)c1-c1cc(N2CCOC[C@H]2C)nc(-c2cc(CO)cc3[nH]ccc23)n1 [WX42]	29 nM	27.8%	90.7%	510 nM	1.09 µM·h	34.3 mL/min/kg	2.57 h	1.96 µM	2.21 L/kg	15 µM·h	6.5 µM	2.02 h	129.0%			
Cc1nnc(C)n1-c1cc(N2CCOC[C@H]2C)nc(-c2cccc3[nH]ccc23)n1 [WX45]	69 nM	32.3%	79.9%	750 nM	0.88 µM·h	48.3 mL/min/kg	0.99 h	1.58 µM	2.59 L/kg	10.9 µM·h	7.72 µM	1.69 h	123.0%			
Cc1nnc(C)n1-c1cc(N2CCOC[C@H]2C)nc(-c2cc(F)cc3[nH]ccc23)n1 [WX46]	31 nM	43.8%	79.9%	350 nM										26.2 µM·h	10.6 µM	0.892 h
